Data from EPA's ToxValDB 9.5 (doi:10.2903/j.efsa.2010.1523).
Values after ≈ are worked out from the molar mass of the structure shown.

Experiments:
[1] = tested on: Colinus virginianus; conditions: acute, oral, mortality
[2] = tested on: Oryctolagus sp.
[3] = tested on: Coturnix japonica; conditions: reproduction developmental
[4] = tested on: Rattus norvegicus; conditions: acute; oral; mortality
[5] = tested on: Oncorhynchus mykiss
[6] = tested on: Apis mellifera; conditions: acute; duration: 48 hours; dermal; mortality
[7] = tested on: Daphnia magna; conditions: chronic/long-term; duration: 21 days; reproduction
[8] = tested on: Canidae; conditions: chronic; duration: 1 years; oral; Dog Other; hematological
[9] = tested on: Mus musculus; conditions: acute; oral; mortality
[10] = tested on: Tagia sp.; conditions: acute; duration: 14 days; mortality
[11] = tested on: Aphidius rhopalosiphi; experiment: LR50; higher = less toxic; conditions: not reported; mortality

Structure (SMILES): Cc1cnc2c(C(=O)O)c(Cl)ccc2c1 [Quinmerac]
- LC50 ([1]; diet): > 933 mg/kg-day
- LD50 [1]: > 2000 mg/kg-day
- NOEL ([2]; chronic): 100 mg/kg-day
- NOAEL ([2]; developmental, development): 30 mg/kg-day
- NOEC [3]: 173 mg/kg-day
- LD50 [4]: > 5000 mg/kg-day
- LC50 ([5]; acute, duration: 96 hours, mortality): 86.8 µg/mL (≈ 392 µM)
- NOEC ([5]; chronic/long-term, duration: 28 days, growth): 3.16 mg/L
- LD50 [6]: > 100 µg/piece
- NOEC [7]: 100 mg/L
- NOAEL [8]: 7.9 mg/kg-day
- LD50 [9]: > 5000 mg/kg-day
- LC50 [10]: > 1000 mg/kg
- LR50 [11]: > 500 g/ha
